# Data published in publication PMC3488358 (Chemical biology & drug design, 2013).
# Values joined by “and” are separate entries in the source; they are usually repeats but may differ in a detail not shown here. Identical values can stand only once. Like-named read-outs stand apart in the source and are kept apart here.
# Tests used:
# P. falciparum (D6 Clone) = assay type: cell-based, Plasmodium falciparum; conditions: read-out: P. falciparum (D6 Clone) IC50; chloroquine-sensitive D6 clone
# P. falciparum (W2 Clone) = assay type: cell-based, Plasmodium falciparum; conditions: read-out: P. falciparum (W2 Clone) IC50; chloroquine-resistant W2 clone
# [1] = test system: Leishmania donovani promastigotes; assay: In vitro antileishmanial activity, Alamar Blue assay; assay type: cell-based; conditions: for IC50: read-out: L. donovani IC50; for IC90: read-out: L. donovani IC90
# [2] = test system: Staphylococcus aureus ATCC 29213; assay: Antibacterial susceptibility testing; assay type: cell-based
# [3] = test system: Methicillin-resistant S. aureus ATCC 33591 (MRSA); assay: Antibacterial susceptibility testing; assay type: cell-based, Staphylococcus aureus
# [4] = test system: Escherichia coli ATCC 35218; assay: Antibacterial susceptibility testing; assay type: cell-based
# [5] = test system: Pseudomonas aeruginosa ATCC 27853; assay: Antibacterial susceptibility testing; assay type: cell-based
# [6] = test system: Mycobacterium intracellulare ATCC 23068; assay: Antibacterial susceptibility testing; assay type: cell-based
# [7] = test system: Candida albicans ATCC 90028; assay: In vitro antifungal activity; assay type: cell-based
# [8] = test system: Candida glabrata ATCC 90030; assay: In vitro antifungal activity; assay type: cell-based
# Candida krusei ATCC 6258 = assay: In vitro antifungal activity; assay type: cell-based
# [9] = test system: Cryptococcus neoformans ATCC 90113; assay: In vitro antifungal activity; assay type: cell-based
# [10] = test system: Aspergillus fumigatus ATCC 204305; assay: In vitro antifungal activity; assay type: cell-based
# HIV-1NL4.3 virus = assay: Anti-HIV activity, p24 antigen capture ELISA in CEM-GFP cells; assay type: cell-based; conditions: CEM-GFP cells infected with HIV-1NL4.3, non-cytotoxic concentration
smiles,measurement,setting,value
"CCCCC[C@@H]1C[C@@H]2CC[C@@H]3C[C@H](C)NC(=N1)N32 (racemic) [17l, batzelladine K]",IC50,P. falciparum (D6 Clone),14.8 µM
same,IC50,P. falciparum (W2 Clone),13.7 µM
same,IC50,[1]; promastigotes,48.2 µM
same,IC90,[1]; promastigotes,124 µM
same,S. aureus MBC,[2],- (“-” = Not active at the highest test concentration of 20 μg/mL)
same,S. aureus MIC,[2],80.32 µM
same,IC50,[2]; read-out: S. aureus IC50,64.1 µM
same,MRSA MBC,[3],- (“-” = Not active at the highest test concentration of 20 μg/mL)
same,MRSA MIC,[3],80.3 µM
same,IC50,[3]; read-out: MRSA IC50,56 µM and 56.1 µM
same,E.coli IC50,[4],- (“-” = Not active at the highest test concentration of 20 μg/mL)
same,E.coli MBC,[4],- (“-” = Not active at the highest test concentration of 20 μg/mL)
same,E.coli MIC,[4],- (“-” = Not active at the highest test concentration of 20 μg/mL)
same,P. aeruginosa IC50,[5],- (“-” = Not active at the highest test concentration of 20 μg/mL)
same,P. aeruginosa MBC,[5],- (“-” = Not active at the highest test concentration of 20 μg/mL)
same,P. aeruginosa MIC,[5],- (“-” = Not active at the highest test concentration of 20 μg/mL)
same,M. intracellulare MBC,[6],- (“-” = Not active at the highest test concentration of 20 μg/mL)
same,M. intracellulare MIC,[6],- (“-” = Not active at the highest test concentration of 20 μg/mL)
same,IC50,[6]; read-out: M. intracellulare IC50,79.5 µM
same,Candida albicans MFC,[7],- (“-” = No activity at the highest test concentration of 20 μg/mL)
same,Candida albicans MIC,[7],- (“-” = No activity at the highest test concentration of 20 μg/mL)
same,Candida glabrata MFC,[8],- (“-” = No activity at the highest test concentration of 20 μg/mL)
same,Candida glabrata MIC,[8],- (“-” = No activity at the highest test concentration of 20 μg/mL)
same,Candida krusei MFC,Candida krusei ATCC 6258,- (“-” = No activity at the highest test concentration of 20 μg/mL)
same,Candida krusei MIC,Candida krusei ATCC 6258,- (“-” = No activity at the highest test concentration of 20 μg/mL)
same,Cryptococcus neoformans MFC,[9],- (“-” = No activity at the highest test concentration of 20 μg/mL)
same,Cryptococcus neoformans MIC,[9],- (“-” = No activity at the highest test concentration of 20 μg/mL)
same,IC50,[9]; read-out: Cryptococcus neoformans IC50,76.2 µM
same,Aspergillus fumigatus MFC,[10],- (“-” = No activity at the highest test concentration of 20 μg/mL)
same,Aspergillus fumigatus MIC,[10],- (“-” = No activity at the highest test concentration of 20 μg/mL)
same,anti-HIV activity (inhibition of HIV-1),HIV-1NL4.3 virus,no anti-HIV activity
C[C@@H]1[C@H](O)[C@@H](C)/C=C/C=C/C=C/C=C/C=C/C=C/C=C/[C@H](O[C@@H]2O[C@H](C)[C@@H](O)[C@H](N)[C@@H]2O)C[C@@H]2O[C@](O)(C[C@@H](O)C[C@@H](O)[C@H](O)CC[C@@H](O)C[C@@H](O)CC(=O)O[C@H]1C)C[C@H](O)[C@H]2C(=O)O [Amphotericin B],IC50,[1]; Leishmania donovani,0.173 µM
same,IC90,[1]; Leishmania donovani,0.358 µM
N=C(N)c1ccc(OCCCCCOc2ccc(C(=N)N)cc2)cc1 [Pentamidine],IC50,[1]; Leishmania donovani,2.94 µM
same,IC90,[1]; Leishmania donovani,5.88 µM
